# Where two headings read alike, the source gives them in different places.
# Assay: Simulated intestinal fluid (SIF) stability in the presence of various enzymes
# Assay type: in vitro ADME
# Conditions: 1 μM
# Description: (§1) Studies were carried out in simulated intestinal fluid in the presence of various enzymes. Simulated intestinal fluid was prepared by dissolving 6.8 g of monobasic potassium phosphate in 1.0 L of water. Aliquots of this solution were taken and the pH was adjusted to 6.8. Individual enzymes were then spiked into aliquots for each experiment. A DMSO stock was first prepared for the test article. Aliquots of the DMSO solution were dosed into 700 μL of matrix, which had been pre-warmed to 37° C., at a final test article concentration of 1 μM. […] Samples were stored at 4° C. until the end of the experiment. After the final time point was sampled, the plate was mixed and then centrifuged at 3,000 rpm for 10 minutes. Calibration standards were prepared in matched matrix. […] Analytical conditions are outlined in Appendix 8-1.
# as §1, with “10-1.” for “8-1.”
# Studies were carried out in simulated intestinal fluid in the presence of various enzymes. Simulated intestinal fluid was prepared by dissolving 6.8 g of monobasic potassium phosphate in 1.0 L of water. Aliquots of this solution were taken and the pH was adjusted to 6.8. Individual enzymes were then spiked into aliquots for each experiment. A DMSO stock was first prepared for test article. Aliquots of the DMSO solution were dosed into 700 μL of matrix, which had been pre-warmed to 37° C., at a final test article concentration of 1 μM. […] Samples were stored at 4° C. until the end of experiment. After final time point was sampled, the plate was mixed and then centrifuged at 3,000 rpm for 10 minutes. Calibration standards were prepared in matched matrix. […] Analytical conditions are outlined in Appendix 13-1.
# as §1, with “17-1.” for “8-1.”
# [1] = SIF + Carboxypeptidase A, 0 min
# [2] = SIF + Carboxypeptidase A, 15 min
# [3] = SIF + Carboxypeptidase A, 30 min
# [4] = SIF + Carboxypeptidase A, 60 min
# [5] = SIF + Carboxypeptidase A, 120 min
# [6] = SIF + Carboxypeptidase B, 0 min
# [7] = SIF + Carboxypeptidase B, 15 min
# [8] = SIF + Carboxypeptidase B, 30 min
# [9] = SIF + Carboxypeptidase B, 60 min
# [10] = SIF + Carboxypeptidase B, 120 min
# [11] = simulated intestinal fluid with carboxypeptidase A, pH 6.8, SIF + Carboxypeptidase A, read-out: Half-life
# [12] = simulated intestinal fluid with carboxypeptidase B, pH 6.8, SIF + Carboxypeptidase B, read-out: Half-life
# [13] = simulated intestinal fluid with chymotrypsin, pH 6.8, SIF + Chymotrypsin, read-out: Half-life
# [14] = simulated intestinal fluid with elastase, pH 6.8, SIF + Elastase, read-out: Half-life
# [15] = simulated intestinal fluid with pancreatin, pH 6.8, SIF + Pancreatin, read-out: Half-life
# [16] = simulated intestinal fluid with trypsin, pH 6.8, SIF + Trypsin, read-out: Half-life
% Remaining of Initial (n = 1) [1],% Remaining of Initial (n = 1) [2],% Remaining of Initial (n = 1) [3],% Remaining of Initial (n = 1) [4],% Remaining of Initial (n = 1) [5],% Remaining of Initial (n = 1) [6],% Remaining of Initial (n = 1) [7],% Remaining of Initial (n = 1) [8],% Remaining of Initial (n = 1) [9],% Remaining of Initial (n = 1) [10],"% Remaining of Initial (n = 1) (SIF + Chymotrypsin, 0 min)","% Remaining of Initial (n = 1) (SIF + Chymotrypsin, 15 min)","% Remaining of Initial (n = 1) (SIF + Chymotrypsin, 30 min)","% Remaining of Initial (n = 1) (SIF + Chymotrypsin, 60 min)","% Remaining of Initial (n = 1) (SIF + Chymotrypsin, 120 min)","% Remaining of Initial (n = 1) (SIF + Elastase, 0 min)","% Remaining of Initial (n = 1) (SIF + Elastase, 15 min)","% Remaining of Initial (n = 1) (SIF + Elastase, 30 min)","% Remaining of Initial (n = 1) (SIF + Elastase, 60 min)","% Remaining of Initial (n = 1) (SIF + Elastase, 120 min)",SMILES,further results
100%,79%,70%,56%,43%,100%,75%,54%,40%,17%,100%,78%,70%,60%,58%,100%,61%,42%,30%,28%,CCCCCCCCCCCCCCCC(=O)NCCOC(=O)CCC [Compound I-2],"% Remaining of Initial (n = 1) (SIF + Pancreatin, 0 min): 100%; % Remaining of Initial (n = 1) (SIF + Pancreatin, 15 min): 93%; % Remaining of Initial (n = 1) (SIF + Pancreatin, 30 min): 91%; % Remaining of Initial (n = 1) (SIF + Pancreatin, 60 min): 98%; % Remaining of Initial (n = 1) (SIF + Pancreatin, 120 min): 60%; % Remaining of Initial (n = 1) (SIF + Trypsin, 0 min): 100%; % Remaining of Initial (n = 1) (SIF + Trypsin, 15 min): 82%; % Remaining of Initial (n = 1) (SIF + Trypsin, 30 min): 72%; % Remaining of Initial (n = 1) (SIF + Trypsin, 60 min): 75%; % Remaining of Initial (n = 1) (SIF + Trypsin, 120 min): 46%; half-life at 1 μM [11]: 1.53 h; half-life at 1 μM [12]: 0.717 h; half-life at 1 μM (simulated intestinal fluid with chymotrypsin, pH 6.8, SIF + Chymotrypsin, outside the sampled time range, read-out: Half-life, calculated (in parentheses)): 2.4 h; half-life at 1 μM [13]: > 2 h; half-life at 1 μM [14]: 0.617 h; half-life at 1 μM (simulated intestinal fluid with pancreatin, pH 6.8, SIF + Pancreatin, outside the sampled time range, read-out: Half-life, calculated (in parentheses)): 3.42 h; half-life at 1 μM [15]: > 2 h; half-life at 1 μM (simulated intestinal fluid with trypsin, pH 6.8, SIF + Trypsin, outside the sampled time range, read-out: Half-life, calculated (in parentheses)): 2.02 h; half-life at 1 μM [16]: > 2 h"
100%,76%,66%,36%,20%,100%,86%,77%,41%,15%,100%,102%,84%,61%,53%,100%,94%,61%,44%,29%,"CCCCCCCCCCCCCCCC(=O)NCCOC(=O)CCC(=O)OCC(COC(=O)CCCCCCC)OC(=O)CCCCCCC (centres unmarked) [Compound I-3, PEA-Succinate-Glycerol-Di-Caprylic]","% Remaining of Initial (n = 1) (SIF + Pancreatin, 0 min): 100%; % Remaining of Initial (n = 1) (SIF + Pancreatin, 15 min): <1.0%; % Remaining of Initial (n = 1) (SIF + Pancreatin, 30 min): <1.0%; % Remaining of Initial (n = 1) (SIF + Pancreatin, 60 min): <1.0%; % Remaining of Initial (n = 1) (SIF + Pancreatin, 120 min): <1.0%; % Remaining of Initial (n = 1) (SIF + Trypsin, 0 min): 100%; % Remaining of Initial (n = 1) (SIF + Trypsin, 15 min): 67%; % Remaining of Initial (n = 1) (SIF + Trypsin, 30 min): 60%; % Remaining of Initial (n = 1) (SIF + Trypsin, 60 min): 55%; % Remaining of Initial (n = 1) (SIF + Trypsin, 120 min): 43%; half-life at 1 μM [11]: 0.767 h; half-life at 1 μM [12]: 0.817 h; half-life at 1 μM [13]: 1.78 h; half-life at 1 μM [14]: 0.917 h; half-life at 1 μM [15]: < 0.0167 h; half-life at 1 μM [16]: 1.55 h"
100%,84%,63%,39%,15%,100%,94%,62%,43%,14%,100%,75%,59%,37%,23%,100%,103%,70%,48%,35%,CC/C=C\C/C=C\C/C=C\C/C=C\C/C=C\CCCC(=O)OCCNC(=O)CCCCCCCCCCCCCCC [Compound I-5],"% Remaining of Initial (n = 1) (SIF + Pancreatin, 0 min): 100%; % Remaining of Initial (n = 1) (SIF + Pancreatin, 15 min): 13%; % Remaining of Initial (n = 1) (SIF + Pancreatin, 30 min): <1.0%; % Remaining of Initial (n = 1) (SIF + Pancreatin, 60 min): <1.0%; % Remaining of Initial (n = 1) (SIF + Pancreatin, 120 min): <1.0%; % Remaining of Initial (n = 1) (SIF + Trypsin, 0 min): 100%; % Remaining of Initial (n = 1) (SIF + Trypsin, 15 min): 81%; % Remaining of Initial (n = 1) (SIF + Trypsin, 30 min): 67%; % Remaining of Initial (n = 1) (SIF + Trypsin, 60 min): 44%; % Remaining of Initial (n = 1) (SIF + Trypsin, 120 min): 26%; half-life at 1 μM [11]: 0.733 h; half-life at 1 μM [12]: 0.75 h; half-life at 1 μM [13]: 0.783 h; half-life at 1 μM [14]: 1.08 h; half-life at 1 μM [15]: 0.085 h; half-life at 1 μM [16]: 0.933 h"
100%,77%,46%,60%,56%,100%,87%,93%,54%,19%,100%,106%,99%,51%,55%,100%,95%,74%,64%,69%,CCCCC/C=C\C/C=C\CCCCCCCC(=O)OCCNC(=O)CCCCCCCCCCCCCCC [Compound I-6],"% Remaining of Initial (n = 1) (SIF + Pancreatin, 0 min): 100%; % Remaining of Initial (n = 1) (SIF + Pancreatin, 15 min): 27%; % Remaining of Initial (n = 1) (SIF + Pancreatin, 30 min): 11%; % Remaining of Initial (n = 1) (SIF + Pancreatin, 60 min): 3.1%; % Remaining of Initial (n = 1) (SIF + Pancreatin, 120 min): 1.7%; % Remaining of Initial (n = 1) (SIF + Trypsin, 0 min): 100%; % Remaining of Initial (n = 1) (SIF + Trypsin, 15 min): 116%; % Remaining of Initial (n = 1) (SIF + Trypsin, 30 min): 87%; % Remaining of Initial (n = 1) (SIF + Trypsin, 60 min): 83%; % Remaining of Initial (n = 1) (SIF + Trypsin, 120 min): 123%; half-life at 1 μM (simulated intestinal fluid with carboxypeptidase A, pH 6.8, SIF + Carboxypeptidase A, outside the sampled time range, read-out: Half-life, calculated (in parentheses)): 2.23 h; half-life at 1 μM [11]: > 2 h; half-life at 1 μM [12]: 1.03 h; half-life at 1 μM [13]: 1.68 h; half-life at 1 μM (simulated intestinal fluid with elastase, pH 6.8, SIF + Elastase, outside the sampled time range, read-out: Half-life, calculated (in parentheses)): 3.08 h; half-life at 1 μM [14]: > 2 h; half-life at 1 μM [15]: 0.138 h; half-life at 1 μM [16]: > 2 h"

# Source: patent US11547681B2, “N-acylethanolamide derivatives and uses thereof” (ELIEM THERAPEUTICS, INC., priority 2016, dated 2023)
